Measurements as given in US20070275953A1 (priority 2003, published 2007).
Read-outs that look alike come from different tables or passages of the source.

Columns and labels:
[1] = target: T1, HIV-1 reverse transcriptase (Human immunodeficiency virus type 1 group M subtype B, UniProt P04585); experiment: HIV-1 in vitro reverse transcriptase activity (fixed-time RNA dependent DNA polymerase assay); format: biochemical; conditions: residual RT activity, compound at 10 μM; RT activity without compound set at 100%
T1 construct: fixed-time assay for HIV-1 reverse transcriptase RNA dependent DNA polymerase activity; RT was purchased from Calbiochem; purchased Calbiochem CAL382129-500
Protocol: For the in vitro inhibition studies of the HIV-1 reverse transcriptase activity, stock solutions of the compounds of the present invention were prepared in dimethyl sulfoxide at a final concentration of 10 mM and kept at room temperature. Nevirapine was purchased from Boehringer Ingelheim. Efavirenz was received from the NIH AIDS Research and Reference Reagent Program.
In vitro inhibition studies used a fixed-time assay for HIV-1 reverse transcriptase RNA dependent DNA polymerase activity. RT was purchased from Calbiochem (ref CAL382129-500). One unit of RT corresponds to the amount of enzyme which incorporates one nanomole of [^3H]TTP in 10 minutes at 37° C.
Assays were performed in a final volume of 50 μl. […] Reaction mixtures were incubated at 37° C. for 10 min. The incorporation rate was determined by a standard trichloroacetic acid precipitation procedure (adapted from Current protocols in molecular biology. Eds Wiley, MGH Harvard medical school) and liquid scintillation counting using a Wallac scintillation counter.
The in vitro activity of the compounds, at a final concentration of 10 μM, on the reverse transcriptase (RT) activity of HIV-1 is derivable from the relative (%) reduction in RT activity. Hereby, the RT activity in the absence of any of the compounds is set at 100%.

[2] = target: T1, HIV-1 reverse transcriptase; experiment: RT activity after separation of unbound compound on micro-spin desalting column; format: biochemical; conditions: after preincubation with RT
Protocol: After the preincubation, the unbound Z122 and the RT were separated using a micro-spin desalting column.

[3] = tested on: HIV-1 with WT (wild type) RT in P4 cells; experiment: Anti-HIV assay on P4 cell line, WT RT; format: cell-based; conditions: P4 cell line, WT RT; for EC50: read-out: EC50 WT
Protocol: (§1) For the antiviral and the cytotoxicity assays, the drugs were diluted in complete DMEM medium. In these experiments, drugs were diluted in triplicate wells in a 96-well plate in six, 5 fold serial dilutions.
(§2) Two days later, co-cultivation with SupT1 cells (a human T-cell lymphoma cell line) was initiated to facilitate rapid production of progeny virions. Production of virus was measured by using the Innotest HIV Antigen mAb p24 kit (Innogenetics). At the peak of production cultures were harvested and filtered. The virus stocks were stored at −80° C. until used.
Anti-HIV activity and cytotoxicity of the compounds were tested on a P4 cell line. […] The P4 cells were cultured in complete DMEM medium supplemented with 10% fetal bovine serum (FBS), 0.5% of Penicillin/Streptomycin and G418 at 0.5 mg/ml. Exponentially growing cells were trypsinized, centrifuged and split twice weekly at 5.10^4 cells/ml.
The P4 cells are HIV-infectible Hela-CD4 cells that carry the bacterial lacZ gene under the control of the HIV-1 long terminal repeat (LTR). In this cell line, transcription of the LacZ gene is driven by the HIV-1 LTR. […] In other words, in this system, the expression level of the β-galactosidase gene is proportional to the viral replication.
Briefly, in the anti-HIV assay 100 Ål of P4 cells were plated in 96-well plate at a concentration of 0.4 10^5 cells/ml and incubated at 37° C., 5% CO2. After 48 h, the medium was removed and 100 Ål of the different drugs dilutions were added to the cells. Four hours after the addition of the drugs all cells were infected with equal amount of cell-free virus, corresponding to 100 ng of HIV p24 antigen. After 48 h of incubation at 37° C., 5% CO2, β-galactosidase activity was measured using chlorophenol red-β-D-galactopyranoside assays.
Each assay was performed a minimum of three times. The 50% effective concentration (Ec50) was calculated from each dose response curve using the CurveExpert 1.3 software.

[4] = target: T1, HIV-1 reverse transcriptase; experiment: RT inhibition as a function of preincubation time with the RT; format: biochemical
Excerpt: Z122 seems to be an irreversible inhibitor of the reverse transcriptase.

[5] = tested on: HIV-1 with WT (wild type) RT in MT4 cells; experiment: Anti-HIV assay on MT4 cell line, WT RT; format: cell-based
Protocol: as §2, with “Wurzburg Jurkat T cells (subclone JR) were transfected with 10 μg of the circularly permuted infectious molecular clone HIVNL4-3 (Adachi et al., 1986. J. Virol, 59 (2), p 284-291). Two” for “Two”
Anti-HIV activity of the compounds was tested on MT-4 cell line. The MT-4 cell line (Larder et al. 1989. Sciences, Vol. 243 p 1731) was received from the NIH AIDS Research and Reference Reagent Program. These cells were cultured in RPMI medium supplemented with 10% fetal bovine serum (FBS), and 1% Penicillin/Streptomycin. The cultures were split regularly to keep cells densities between 0.3 to 1.2 10^6 cells/ml.
The MT-4 cells rapidly die upon infection by HIV. In this system there is an inverse correlation between cells survival and the amount of viral replication.
Briefly, in the anti-HIV assay exponentially growing MT-4 cells were infected with HIV-1. 100 μl of infected MT-4 cells were seeded in 96-well plate at a concentration of 0.4 10^5 cells/ml, and 100 μl of the different drugs dilutions were added to the cells. After 4 days of incubation at 37° C., 5% CO2, cells survival was measured using MTS (3-(4-5-dimethylthiazol-2-yl)-5-(−(3-carboxymethoxyphenyl)-2-(4-sulfophenyl)-2H-tetrazolium) assays. This compound is reduced by viable cells in a colored soluble formazan salt.
The absorbance was measured on a Benchmark™ Microplate Reader (Biorad) (λ=490 nm) and compared with 12 cell control replicates (nor virus nor drug added) and 12 virus control wells (no drug added). Each assay was performed a minimum of three times. The 50% effective concentration (EC50) was calculated from each dose response curve using the CurveExpert 1.3 software.

[6] = tested on: HIV-1 with WT (wild type) RT in PBMC; experiment: Anti-HIV assay on PBMC, WT RT (p24); format: cell-based
Protocol: as §2, with “Wurzburg Jurkat T cells (subclone JR) were transfected with 10 μg of the circularly permuted infectious molecular clone HIVNL4-3 (Adachi et al., 1986. J. Virol, 59 (2), p 284-291). Two” for “Two”
Anti-HIV activity of the compounds was tested on Peripheral Blood Mononuclear Cells (PBMCs). These cells were separated from the blood of healthy donor using established procedures. PBMCs were cultured in RPMI medium supplemented with 10% fetal bovine serum (FBS), 1% Penicillin/Streptomycin and 20 U/ml of Interleukin-2.
PBMCs isolated from the blood of healthy donor contain CD4^+ T-lymphocytes which are one of the main targets of HIV in infected individuals.
Briefly, in the anti-HIV assay PBMCs, activated with phytohemagglutinin, were infected with HIV-1. 100 μl of infected PBMCs were seeded in 96-well plate at a concentration of 1 10^5 cells/ml, and 100 μl of the different drugs dilutions were added to the cells. After 4 days of incubation at 37° C., 5% CO2, cells cultures supernatants were collected. The amount of the viral capsid protein p24 in the supernatants was measured using the Innotest HIV Antigen mAb P24 kit (Innogenetics).

[7] = Cytotoxicity (CC50), MTT assay on P4 cells; format: cell-based; conditions: human
Protocol: as §1
(§3) The 50% cytotoxic concentration (CCso) was determined using a protocol adapted from Pauwels et al. (1988. J. Virol. Methods 20(4):309-21). Briefly, flat bottom 96-well plates were filled with 50 μl of complete medium containing 5.10^3 P4 cells. 2 hours later 50 μl of drug solution were added to the cells. Drugs (dissolved in DMEM, see above) were diluted in six, 5-fold serial dilutions from stock solutions in triplicate wells of a 96-well plate. Cells and compounds were incubated at 37° C. in growth medium for 3 days. Cell viability was determined by MTT assays using the Roche Cell Proliferation KIT. The absorbance (λ=570 nm) was measured on a Benchmark™ Microplate Reader (Biorad) and compared with 12 cell control replicates (no drug added). Each assay was performed at least three times for a total of at least nine replicate wells. This method detects both cytostatic and cytolytic effects of drugs.

P4 cells = experiment: Cytotoxicity (CC50), MTT assay on P4 cells; format: cell-based; conditions: 3 days
Protocol: as §1, §3

In the case of `CCc1c(C)[nH]c(=O)c(CSCCO)c1OC1CC(C)CC(C)C1` (stereo not shown) [Z121, 5-ethyl-6-methyl-4-[(3,5-dimethylcyclohexyl)oxy]-3-{[(2-hydroxyethyl)sulfanyl]methyl}pyridine-2(1H)-one], the “Relative (%) RT activity in vitro (compound added at 10 μM)” value [1] is reported as 1.4%, the “change in RT activity after separation of unbound compound (micro-spin desalting column)” value [2] is reported as “significant increase in the RT activity” and the EC50 ([3]; Human immunodeficiency virus 1) is reported as under 1 nM. For the same compound, the “SI (selectivity index = CC50/EC50)” value [3] was over 27000, the melting point was 133 to 134 °C and the “dependence of RT inhibition on time of (pre)incubation with the RT” value [4] was “independent of the preincubation time”. The EC50 ([5]; Human immunodeficiency virus 1) was 14 nM, the EC50 ([6]; Human immunodeficiency virus 1) was under 1 nM and the CC50 at 3 days [7] was 27000 nM.

With `CCc1c(C)[nH]c(=O)c(CSCCOC(=O)CCl)c1OC1CC(C)CC(C)C1` (stereo not shown) [Z122] the “Relative (%) RT activity in vitro (compound added at 10 μM)” value [1] was 39.1%, the “change in RT activity after separation of unbound compound (micro-spin desalting column)” value [2] was “did not observe any increase in the RT activity” and the EC50 [3] was 1 nM. For the same compound, the “dependence of RT inhibition on time of (pre)incubation with the RT” value [4] was “increases with respect to the time of incubation”, the EC50 [5] was under 1 nM and the EC50 [6] was under 1 nM. For the same compound, the CC50 (P4 cells) was 27500 nM.
